In the supplement of paper PMC10307832:

Assays:
Experiment in all cases: relative viability (nuclei count vs DMSO), 5 days (fraction); higher = more cells survive
Quizartinib + Alpelisib = compound: CC(C)(C)c1cc(NC(=O)Nc2ccc(-c3cn4c(n3)sc3cc(OCCN5CCOCC5)ccc34)cc2)no1 [Quizartinib] + Cc1nc(NC(=O)N2CCC[C@H]2C(N)=O)sc1-c1ccnc(C(C)(C)C(F)(F)F)c1 [Alpelisib] (partner 2 µM)
Outline: (§1)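 Cells from lung cancer lines were seeded into 1536-well plates and, one day later, dosed by pin tool. Treatments were either a single drug or a fixed dose of an anchor drug with five library-drug doses (not always all listed) in √10 steps. After 5 days, nuclei were stained in a one-step fixation (final 0.05% Triton X-100, 1% formaldehyde, 1 ug/ml Hoechst) and counted on 4× images, and relative viability is the treated-to-vehicle nuclei ratio, as the median of duplicate plates.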

YM155 + Bortezomib = compound: COCC[n+]1c2c(n(Cc3cnccn3)c1C)C(=O)c1ccccc1C2=O [YM155] + CC(C)C[C@H](NC(=O)[C@H](Cc1ccccc1)NC(=O)c1cnccn1)B(O)O [Bortezomib] (partner 0.002 µM)
Outline: as §1

YM155 + AZD7762 = compound: COCC[n+]1c2c(n(Cc3cnccn3)c1C)C(=O)c1ccccc1C2=O [YM155] + NC(=O)Nc1cc(-c2cccc(F)c2)sc1C(=O)N[C@H]1CCCNC1 [AZD7762] (partner 0.2 µM)
Outline: as §1

YM155 + Palbociclib = compound: COCC[n+]1c2c(n(Cc3cnccn3)c1C)C(=O)c1ccccc1C2=O [YM155] + CC(=O)c1c(C)c2cnc(Nc3ccc(N4CCNCC4)cn3)nc2n(C2CCCC2)c1=O [Palbociclib] (partner 0.5 µM)
Outline: as §1

Row | Cell Line | relative viability (Quizartinib + Alpelisib; first compound 0.001 µM) | relative viability (Quizartinib + Alpelisib; first compound 0.003162 µM) | relative viability (Quizartinib + Alpelisib; first compound 0.01 µM) | relative viability (Quizartinib + Alpelisib; first compound 0.03162 µM) | relative viability (Quizartinib + Alpelisib; first compound 0.1 µM) | relative viability (YM155 + Bortezomib; first compound 0.006325 µM) | relative viability (YM155 + Bortezomib; first compound 0.02 µM) | relative viability (YM155 + Bortezomib; first compound 0.06325 µM) | relative viability (YM155 + AZD7762; first compound 0.002 µM) | relative viability (YM155 + AZD7762; first compound 0.006325 µM) | relative viability (YM155 + AZD7762; first compound 0.02 µM) | relative viability (YM155 + AZD7762; first compound 0.06325 µM) | relative viability (YM155 + Palbociclib; first compound 0.002 µM) | relative viability (YM155 + Palbociclib; first compound 0.006325 µM) | relative viability (YM155 + Palbociclib; first compound 0.02 µM) | relative viability (YM155 + Palbociclib; first compound 0.06325 µM) | relative viability (YM155 + Bortezomib; first compound 0.002 µM)
1 | NCI-H596 | 0.521 | 0.498 | 1.34 | 0.407 | 0.396 | 1.18 | 0.946 | 1.19 | 0.989 | 0.98 | 1.28 | 1.11 |  |  |  |  | 
2 | NCI-H2170 | 0.769 | 0.683 | 0.956 | 0.787 | 0.809 |  |  |  | 0.873 | 0.817 | 0.839 | 0.734 | 0.418 | 0.473 | 0.389 | 0.376 | 
3 | Calu-6 | 0.92 | 0.915 | 1 | 0.761 | 0.947 | 0.84 | 0.298 | 0.188 |  |  |  |  |  |  |  |  | 0.966
4 | COR-L 105 | 0.751 | 0.898 | 1.12 | 0.527 | 1.05 | 0.81 | 0.958 | 0.786 |  |  |  |  | 0.371 | 0.388 | 0.424 | 0.401 | 0.682
5 | NCI-H2009 | 1.14 | 1.01 | 1.19 | 1.09 | 1.13 | 1.02 | 1.04 | 0.923 |  |  |  |  | 0.215 | 0.189 | 0.318 | 0.166 | 0.944
6 | UMC-11 | 0.924 | 0.948 | 1.13 | 0.947 | 1.1 | 0.557 | 0.719 | 0.667 |  |  |  |  | 0.327 | 0.356 | 0.336 | 0.33 | 0.692
